Results taken from patent publication US9969742B2, “Imidazotriazinone compounds” (Ironwood Pharmaceuticals, Inc., priority 2012, dated 2018).
Read-outs that look alike come from different tables or passages of the source.

Assays:
Type in all cases: biochemical
PDE1B = target: T1, PDE1B (Homo sapiens, UniProt Q01064); assay: Phosphodiesterase enzyme screening assay, PDE1B; details: value greater than 1 indicates greater selectivity for PDE9A2
T1 construct: purchased Reaction Biology Corporation, Malvern, Pa
T1 sequence (Q01064 whole entry): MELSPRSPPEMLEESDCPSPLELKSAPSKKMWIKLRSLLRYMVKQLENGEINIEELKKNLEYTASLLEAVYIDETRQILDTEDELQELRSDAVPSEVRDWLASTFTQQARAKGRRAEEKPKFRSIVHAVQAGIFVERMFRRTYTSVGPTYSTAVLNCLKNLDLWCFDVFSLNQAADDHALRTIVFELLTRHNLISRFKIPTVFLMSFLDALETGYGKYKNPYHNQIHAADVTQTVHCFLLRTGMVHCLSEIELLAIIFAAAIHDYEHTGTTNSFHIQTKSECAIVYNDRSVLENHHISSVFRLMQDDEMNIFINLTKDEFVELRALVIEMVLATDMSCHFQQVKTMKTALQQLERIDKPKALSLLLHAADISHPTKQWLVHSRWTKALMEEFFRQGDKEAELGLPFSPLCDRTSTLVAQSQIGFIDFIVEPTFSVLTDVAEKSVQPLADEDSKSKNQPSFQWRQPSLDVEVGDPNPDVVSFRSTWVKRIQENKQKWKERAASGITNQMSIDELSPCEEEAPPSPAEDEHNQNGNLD
Method in brief: (§1)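 Microfluidic mobility-shift assay; values from quadruplicate wells relative to controls. Conditions: 4.0 μM cGMP, 5 mM MgCl2, pH 7.5 HEPES, 1 h R.T., EDTA stop.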

PDE1A = target: T2, PDE1A (Homo sapiens, UniProt P54750); assay: Phosphodiesterase enzyme screening assay, PDE1A; details: value greater than 1 indicates greater selectivity for PDE9A2
T2 construct: purchased Reaction Biology Corporation, Malvern, Pa
T2 sequence (P54750 whole entry): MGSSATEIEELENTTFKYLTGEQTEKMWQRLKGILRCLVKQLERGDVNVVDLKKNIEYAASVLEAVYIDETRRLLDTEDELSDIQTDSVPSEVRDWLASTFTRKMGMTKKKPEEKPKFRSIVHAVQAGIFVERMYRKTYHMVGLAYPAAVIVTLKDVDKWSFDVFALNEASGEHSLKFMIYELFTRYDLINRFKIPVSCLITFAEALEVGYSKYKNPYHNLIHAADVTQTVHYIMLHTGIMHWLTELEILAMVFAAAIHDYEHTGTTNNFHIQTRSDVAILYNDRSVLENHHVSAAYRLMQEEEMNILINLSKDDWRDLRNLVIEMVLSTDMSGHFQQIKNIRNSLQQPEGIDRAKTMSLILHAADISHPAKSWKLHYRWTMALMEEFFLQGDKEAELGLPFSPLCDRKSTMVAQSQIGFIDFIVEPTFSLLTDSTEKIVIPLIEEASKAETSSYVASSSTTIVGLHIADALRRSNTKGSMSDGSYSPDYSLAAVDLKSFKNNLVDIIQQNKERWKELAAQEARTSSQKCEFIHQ
Method in brief: as §1

PDE9A2 = target: T3, PDE9A2 (Homo sapiens, UniProt O76083); assay: Phosphodiesterase enzyme screening assay, PDE9A2; details: read-out: Band (PDE9A2 IC50)
T3 construct: purchased Reaction Biology Corporation, Malvern, Pa
T3 sequence (O76083 1-533 isoform O76083-2): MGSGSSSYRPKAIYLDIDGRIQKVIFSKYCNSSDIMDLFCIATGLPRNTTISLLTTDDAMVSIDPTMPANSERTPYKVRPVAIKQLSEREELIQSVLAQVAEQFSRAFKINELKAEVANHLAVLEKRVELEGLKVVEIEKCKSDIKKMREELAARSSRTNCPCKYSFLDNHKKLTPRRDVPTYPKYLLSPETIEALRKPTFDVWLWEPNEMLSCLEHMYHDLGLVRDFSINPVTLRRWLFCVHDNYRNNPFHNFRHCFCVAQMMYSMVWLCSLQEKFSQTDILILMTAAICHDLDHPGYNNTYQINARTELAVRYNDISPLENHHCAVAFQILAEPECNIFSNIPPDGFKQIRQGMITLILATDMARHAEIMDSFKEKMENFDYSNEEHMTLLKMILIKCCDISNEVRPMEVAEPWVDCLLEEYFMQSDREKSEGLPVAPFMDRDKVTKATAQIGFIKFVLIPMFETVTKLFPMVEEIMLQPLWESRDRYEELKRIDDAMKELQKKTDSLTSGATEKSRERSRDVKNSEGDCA
Method in brief: as §1

[1] = ratio of IC50 values, PDE1B versus PDE9A2
[2] = ratio of IC50 values, PDE1A versus PDE9A2
[3] = Table 1, 10 concentrations, 4.0 μM cGMP substrate, 1 hour at R.T.

Row | SMILES | PDE1B selectivity (versus PDE9A2) (PDE1B; [1]) | PDE1A selectivity (versus PDE9A2) (PDE1A; [2]) | IC50 (PDE9A2) [nM] | PDE1B selectivity (versus PDE9A2) (PDE1B; Table 1, ratio of IC50 values) | PDE1A selectivity (versus PDE9A2) (PDE1A; Table 1, ratio of IC50 values) | IC50 (PDE9A2; [3]) [nM] | other results
1 | Cc1ccccc1-c1ncc2c(=O)[nH]c(C3CN(Cc4cnccn4)CC3C)nn12 (single isomer, unassigned; (+)) [(+)-2-((3,4-trans)-4-methyl-1-(pyrazin-2-ylmethyl)pyrrolidin-3-yl)-7-(o-tolyl)imidazo[5,1-f][1,2,4]triazin-4(3H)-one] | 469 | 387 | < 1000 | – | – | – | –
2 | CC1CN(Cc2cnn3ccccc23)CC1c1nn2c(C3CCOCC3)ncc2c(=O)[nH]1 (single isomer, unassigned; (+)) [(+)-2-((3,4-trans)-4-methyl-1-(pyrazolo[1,5-a]pyridin-3-ylmethyl)pyrrolidin-3-yl)-7-(tetrahydro-2H-pyran-4-yl)imidazo[5,1-f][1,2,4]triazin-4(3H)-one] | – | – | < 1000 | – | – | – | PDE1B selectivity (versus PDE9A2) (PDE1B; ratio of IC50 values): 1010; PDE1A selectivity (versus PDE9A2) (PDE1A; ratio of IC50 values): 3240
3 | CC1CN(Cc2cccnn2)CC1c1nn2c(C3CCOCC3)ncc2c(=O)[nH]1 (single isomer, unassigned; (+)) [(+)-2-((3,4-trans)-4-methyl-1-(pyridazin-3-ylmethyl)pyrrolidin-3-yl)-7-(tetrahydro-2H-pyran-4-yl)imidazo[5,1-f][1,2,4]triazin-4(3H)-one] | – | – | – | 276 | 182 | < 1000 | –
4 | CC1CN(Cc2ccnnc2)CC1c1nn2c(C3CCOCC3)ncc2c(=O)[nH]1 (single isomer, unassigned; (+)) [(+)-2-((3,4-trans)-4-methyl-1-(pyridazin-4-ylmethyl)pyrrolidin-3-yl)-7-(tetrahydro-2H-pyran-4-yl)imidazo[5,1-f][1,2,4]triazin-4(3H)-one] | – | – | – | 99 | 71 | < 1000 | –
5 | Cc1ccccc1-c1ncc2c(=O)[nH]c(C3CN(Cc4ccccn4)CC3C)nn12 (single isomer, unassigned; (+)) [(+)-2-((3,4-trans)-4-methyl-1-(pyridin-2-ylmethyl)pyrrolidin-3-yl)-7-(o-tolyl)imidazo[5,1-f][1,2,4]triazin-4(3H)-one] | 148 | 73 | < 1000 | – | – | – | –
6 | CC1CN(Cc2ccccn2)CC1c1nn2c(C3CCOCC3)ncc2c(=O)[nH]1 (single isomer, unassigned; (+)) [(+)-2-((3,4-trans)-4-methyl-1-(pyridin-2-ylmethyl)pyrrolidin-3-yl)-7-(tetrahydro-2H-pyran-4-yl)imidazo[5,1-f][1,2,4]triazin-4(3H)-one] | – | – | – | 470 | 373 | < 1000 | –
7 | Cc1ccccc1-c1ncc2c(=O)[nH]c(C3CN(Cc4cccnc4)CC3C)nn12 (single isomer, unassigned; (+)) [(+)-2-((3,4-trans)-4-methyl-1-(pyridin-3-ylmethyl)pyrrolidin-3-yl)-7-(o-tolyl)imidazo[5,1-f][1,2,4]triazin-4(3H)-one] | 183 | 103 | < 1000 | – | – | – | –
8 | CC1CN(c2ncccn2)CC1c1nn2c(C3CCOCC3)ncc2c(=O)[nH]1 (single isomer, unassigned; (+)) [(+)-2-((3,4-trans)-4-methyl-1-(pyrimidin-2-yl)pyrrolidin-3-yl)-7-(tetrahydro-2H-pyran-4-yl)imidazo[5,1-f][1,2,4]triazin-4(3H)-one] | – | – | – | 1 | 1 | < 1000 | –
9 | Cc1cnccc1-c1ncc2c(=O)[nH]c(C3CN(Cc4ncccn4)CC3C)nn12 (single isomer, unassigned; (+)) [(+)-2-((3,4-trans)-4-methyl-1-(pyrimidin-2-ylmethyl)pyrrolidin-3-yl)-7-(3-methylpyridin-4-yl)imidazo[5,1-f][1,2,4]triazin-4(3H)-one] | – | – | – | – | – | – | PDE1B selectivity (versus PDE9A2) (PDE1B; ratio of IC50 values PDE1B / PDE9A2): 63; PDE1A selectivity (versus PDE9A2) (PDE1A; ratio of IC50 values PDE1A / PDE9A2): 85; IC50 (PDE9A2; 4.0 μM cGMP substrate, 1 hour at R.T.): < 1000 nM
